# Data: patent US12522593B2, “Azacycloalkyl carbonyl cyclic amine compound” (Alivexis, Inc., priority 2022, dated 2026)
# Assays:
# CTSC in U937 cells = CTSC in U937 cells (Homo sapiens (Human), UniProt P53634); assay: Intracellular CTSC inhibition assay (in vitro), LLOMe-induced cell death in U937 cells; format: cell-based; conditions: 3 hours culture, CellTiter-Glo
# Experimental: 2. Intracellular CTSC Inhibition Assay (In Vitro)
# A test specimen was evaluated by a degree of cell death in a case where a substrate LLOMe (L-Leucyl-L-Leucine methyl ester, hydrobromide salt, Sigma, 555045152) was added to U937 cells. The LLOMe is taken up into the cells by endocytosis and cleaved by CTSC. A product thereof induces lysosomal damage in cells and causes cell death in leukocytes and the like. Therefore, since the degree of cell death correlates with an amount of degradation of LLOMe, that is, with CTSC activity, by quantitatively analyzing the cell death, CTSC inhibitory activity of the test specimen in the cell was determined. CTSC inhibition assay was performed using a polystyrene-made white 384 well plate.
# As the test specimen, a stock solution dissolved in DMSO was prepared so as to be 0.2 mmol/L, and in a case where a solution in which the stock solution was diluted 50-fold with a RPMI-1640 medium including 10% FBS was used as the maximum evaluation concentration (4000 nmol/L), a serially diluted solution was prepared by diluting the solution 3-fold with the medium. Thereafter, a 4-fold concentrated test specimen solution with the target final concentration was prepared.
# U937 cells were cultured in a RPMI-1640 medium including 10% FBS, and diluted to prepare 90,000 cells/mL of cell suspension on the day of assay. 10 μL of the cell suspension was seeded per well. Next, 10 μL of the test specimen solution having a concentration 4 times the target final concentration was added thereto, and the mixture was allowed to stand for 30 minutes. Thereafter, 20 μL of a 300 μmol/L LLOMe solution dissolved in a RPMI-1640 medium including 10% FBS was added thereto, and the cells were cultured for 3 hours. After completion of the culture, 40 μL of CellTiter-Glo (registered trademark) reagent (Promega, G7570) was added to each well and mixed. After 15 minutes, 20 μL of the reaction solution in each well was transferred to a white 384 well plate, and a chemiluminescence intensity was measured with a plate reader. A 4-parameter regression analysis was performed with GraphPad Prism (manufactured by GraphPad Software) from a plot of the luminescence intensity and the sample concentration, and an IC50 value was calculated.
# Results of test compounds of Formula (1) are shown in Table 2 as IC50 (nM) values for which 50% inhibition concentration is calculated based on CTSC inhibition (%). In the table, Ex indicates an example number.
# human recombinant CTSC = human recombinant CTSC (Homo sapiens (Human), UniProt P53634); assay: CTSC inhibition assay (in vitro), fluorescent substrate GF-AFC; format: biochemical; conditions: 30 μmol/L GF-AFC, pH 5.0, 25° C.
# Experimental: 1. CTSC Inhibition Assay (In Vitro)
# A test specimen was evaluated by a CTSC inhibition assay using a fluorescent substrate GF-AFC (Gly-Phe-7-Amino-4-trifluoromethylcoumarin, MP Biomedical, 03AFC03325). Since the GF-AFC is converted by CTSC to aminotrifluoromethylcoumarin having a specific fluorescence wavelength and the produced amount is proportional to CTSC activity, quantitative analysis was performed by measuring a fluorescence intensity with a plate reader. CTSC inhibition assay for each compound was performed using a polystyrene-made non-adhesive surface-treated black 384 well plate under the following conditions.
# A human recombinant CTSC (R&D systems, 1071-CY) was dissolved in a CTSC active cocktail (20 ng/mL of human recombinant cathepsin L (R&D systems, 952-CY, 25 mmol/L MES/NaOH (pH: 6.0), 5 mmol/L dithiothreitol (DTT)) so as to be 100 ng/mL and incubated at 18° C. for 30 minutes. The solution was diluted with a CTSC assay buffer (50 mmol/L MES/NaOH (pH: 5.0), 50 mmol/L NaCl, 0.001% Triton X-100, mmol/L DTT) so as to be 2 ng/mL in a case of performing CTSC inhibition assay.
# The test specimen was dissolved in dimethylsulfoxide (DMSO) at 10 mmol/L to prepare a stock solution. In a case where a solution in which the stock solution was diluted 15-fold with DMSO was used as the maximum evaluation concentration (0.667 mmol/L), 5-fold dilution was repeated in DMSO from the solution to prepare a serially diluted solution. 248.8 μL of the CTSC assay buffer was added to 1.12 μL of the serially diluted sample prepared in the DMSO to prepare a solution of a CTSC inhibition assay compound.
# The final composition of the CTSC inhibition assay mixture was 0.66 ng/mL activated CTSC, 50 mmol/L MES/NaOH (pH: 5.0), 50 mmol/L NaCl, 0.001% Triton X-100, 5 mmol/L DTT, 30 μmol/L GF-AFC, and 0.15% DMSO, and the procedure was as follows. That is, 4 μL of the compound solution and 4 μL of the 2 ng/mL activated CTSC solution were mixed with each other in a 384 well plate and incubated at 25° C. for 30 minutes. Thereafter, 4 μL of the GF-AFC solution dissolved in the CTSC assay buffer was added to the mixture so as to be 90 μmol/L. After mixing to be uniform, a fluorescence emission intensity at 505 nm in a case of being excited at 390 nm after incubating at 25° C. for 1 hour was measured with a plate reader. A 4-parameter regression analysis was performed with GraphPad Prism (manufactured by GraphPad Software) from a plot of the fluorescence intensity at 505 nm and the sample concentration, and an IC50 value was calculated.
# Results of test compounds of Formula (I) are shown in Table 1 as IC50 (nM) values for which 50% inhibition concentration is calculated based on CTSC inhibition (%). In the table, Ex indicates an example number.
# Sequence of human recombinant CTSC (P53634 25-134): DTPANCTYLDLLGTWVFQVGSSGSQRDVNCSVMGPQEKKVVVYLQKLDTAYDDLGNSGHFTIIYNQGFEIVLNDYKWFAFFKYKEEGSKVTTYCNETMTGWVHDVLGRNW
# Sequence of human recombinant CTSC (P53634 231-394): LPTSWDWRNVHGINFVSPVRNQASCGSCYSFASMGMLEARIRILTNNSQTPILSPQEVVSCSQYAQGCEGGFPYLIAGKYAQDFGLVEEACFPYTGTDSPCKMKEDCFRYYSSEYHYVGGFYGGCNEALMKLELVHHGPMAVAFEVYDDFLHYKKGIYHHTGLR
# Sequence of human recombinant CTSC (P53634 395-463): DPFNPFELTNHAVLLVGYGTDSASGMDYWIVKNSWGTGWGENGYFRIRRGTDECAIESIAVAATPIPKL
# Sequence of CTSC in U937 cells (P53634 25-463): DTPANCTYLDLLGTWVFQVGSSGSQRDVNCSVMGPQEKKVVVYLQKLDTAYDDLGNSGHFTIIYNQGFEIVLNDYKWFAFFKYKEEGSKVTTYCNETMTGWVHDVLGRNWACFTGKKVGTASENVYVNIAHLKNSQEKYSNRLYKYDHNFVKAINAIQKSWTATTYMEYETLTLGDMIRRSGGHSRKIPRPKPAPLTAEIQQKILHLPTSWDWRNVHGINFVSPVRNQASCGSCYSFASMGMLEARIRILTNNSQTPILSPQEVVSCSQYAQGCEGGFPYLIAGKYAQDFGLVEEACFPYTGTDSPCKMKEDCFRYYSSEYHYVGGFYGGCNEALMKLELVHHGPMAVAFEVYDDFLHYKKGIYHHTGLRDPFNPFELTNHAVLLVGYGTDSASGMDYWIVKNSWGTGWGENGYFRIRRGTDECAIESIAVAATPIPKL
SMILES,IC50 (human recombinant CTSC),IC50 (CTSC in U937 cells)
CC(C)C1(c2noc(C3CCC(F)(F)CC3)n2)CCN(C(=O)[C@@H]2C[C@H](F)CN2)CC1 [Example 24],151 nM,> 1000 nM
CC(C)C1(c2noc(C34CC(C3)C4)n2)CCN(C(=O)[C@@H]2C[C@@H](O)C3(CCC3)CN2)CC1 [Example 72],2.48 nM,0.31 nM
CS[C@@H]1CN[C@H](C(=O)N2CCC(c3noc(C4CCC(F)(F)CC4)n3)(C(C)C)CC2)C1 [Example 28],254 nM,596 nM
"O=C([C@@H]1C[C@@H](O)C2(CCC2)CN1)N1CCC(c2noc(C3CCC(F)(F)CC3)n2)(C(F)(F)F)CC1 [Example 31, (4-(5-(4,4-Difluorocyclohexyl)-1,2,4-oxadiazol-3-yl)-4-(trifluoromethyl)piperidin-1-yl)((7S,9R)-9-hydroxy-6-azaspiro[3.5]nonan-7-yl)methanone]",0.31 nM,0.22 nM
CC(C)C1(c2noc(C3CCC(F)(F)CC3)n2)CCN(C(=O)[C@@H]2C[C@@H](O)C(C)(C)CN2)CC1 [Example 36],1.88 nM,0.71 nM
CC(C)C1(c2nc(C3CC(F)(F)C3)no2)CCN(C(=O)[C@@H]2CC[C@@]3(CCO3)CN2)CC1 [Example 9],5.09 nM,11.4 nM
O=C([C@@H]1C[C@@H](O)C2(CCC2)CN1)N1CCC(c2noc(C3CCCOC3)n2)(C(F)(F)F)CC1 (some centres unmarked) [Example 60],4.09 nM,1.39 nM
Cc1cnn(C2(c3noc(C4CC(F)(F)C4)n3)CCN(C(=O)[C@@H]3C[C@@H](O)C4(CCC4)CN3)CC2)c1 [Example 71],3.73 nM,5.63 nM
O=C([C@@H]1C[C@@H](O)C2(CCC2)CN1)N1CCC(C(=O)N2CCO[C@@H](C(F)(F)F)C2)(C(F)(F)F)CC1 [Example 37],28.4 nM,10.1 nM
CN(C)C1(c2nc(C3CC(F)(F)C3)no2)CCN(C(=O)[C@@H]2C[C@@H](O)C3(CCC3)CN2)CC1 [Example 75],2.21 nM,5.01 nM

# The next lines start with results.
IC50 (human recombinant CTSC),SMILES,IC50 (CTSC in U937 cells)
5.4 nM,COc1cccc(-n2nnc(C3CCN(C(=O)[C@@H]4C[C@@H](O)C5(CCC5)CN4)CC3)n2)c1 [Example 100],3.48 nM
4.15 nM,O=C([C@@H]1C[C@@H](O)C2(CCC2)CN1)N1CCC(c2nccc(-n3cc(F)cn3)n2)CC1 [Example 99],1.12 nM
4.15 nM,O=C([C@@H]1C[C@@H](O)C2(CCC2)CN1)N1CCC(c2cn(-c3ccc(F)cc3)nn2)CC1 [Example 98],3.8 nM
2.41 nM,CC1(C)CN[C@H](C(=O)N2CCC(c3nnn(-c4ccc(F)c(F)c4)n3)CC2)C[C@H]1O [Example 103],0.5 nM
1.79 nM,O=C([C@@H]1C[C@@H](O)C2(CCC2)CN1)N1CCC(c2nnn(C3CCC(F)(F)CC3)n2)CC1 [Example 97],3.26 nM
1.43 nM,CC(C)C1(c2noc(C3CCC(F)(F)CC3)n2)CCN(C(=O)[C@@H]2CC[C@@]3(CCO3)CN2)CC1 [Example 86],1.06 nM
